Experimental data from patent publication US20220023269A1, “Methods Of Treating Diabetes In Severe Insulin-Resistant Diabetic Subjects” (Balticgruppen Bio AB, priority 2018, published 2022).

Columns and labels:
Wistar rats = test: 6 months oral gavage in Wistar rats; assay type: in vivo; details: 100, 300 and 600 mg/kg/day gavage, RD, vs vehicle
Description: 8-10 weeks old Wistar male and female rats were treated by oral gavage with vehicle or test material at 100, 300 or 600 mg/kg/day for 6 months.

CBA mice on HFD = test: Echocardiography (LV function); assay type: in vivo; details: for heart rate: anesthetized
Description: Left ventricle structure and function were analysed with transthoracic, high-frequency echocardiography using the MS550D transducer. The examination was performed during light isoflurane anaesthesia (1.5-2.0% in 800 mL oxygen). Anaesthesia level was adjusted to keep the respiration rate at 80-110 breaths per minute. Left ventricular volumes were determined in B-mode using a Simpson's rule reconstruction. All images were analysed off-line in a blinded way using the Vevo LAB software 1.7.0. Stroke volume, cardiac output and heart rate were analysed, as well as wall thicknesses and left ventricle diameter. Three measurements/animal was performed for mean values.

[1] = tested on: diet-induced obese C57BL/6J mice; test: Combination therapy AMPK activator + SGLT2 inhibitor in DIO mice; assay type: in vivo; details: 2 weeks oral gavage, Compound 1 75 mg/kg, canagliflozin 10 mg/kg
Description: Male C57BL/6J mice, 8 weeks of age were purchased from Jackson, Charles River Laboratories, Inc. (Germany). All animals were housed in the Umeå University animal facility (Umeå Centre for Comparative Biology; UCCB) with a 12:12 hour light-dark cycle (lights on at 6 a.m.) and a constant temperature of 21° C. The animals were ear marked with a unique identification number, and groups of 5 mice were housed in transparent polycarbonate cages that comply with the requirements of the Code of Practice for the housing and care of animals used in scientific procedures. Wood chips were used as bedding material and environmental enrichment was provided. Animals were allowed to acclimate for 15 weeks to their new environment before the onset of the study. The animals were allowed ad libitum access to tap water throughout the accommodation and study period. During the acclimation period, the animals were allowed a standard pelleted diet (CRM (E) Rodent, Special Diets Services, Scanbur BK, Sweden). At the start of the study, the standard diet was changed to a very high fat diet (vHFD; Cat. No. D12492, Research Diets, Inc.) and this diet was kept throughout the whole study period. All of the procedures were approved by the Local Ethics Review Committee on Animal Experiments, Umeå Region.
23 Weeks old male C57BL/6J mice were fed HFD to promote diet-induced obesity (DIO) and administered once daily by oral gavage; vehicle (phosphate buffer pH 7.3, 2% w/v methyl cellulose; n=11), canagliflozin 10 mg/kg (n=14), Compound 1 at 75 mg/kg (n=14) and the combination of canagliflozin 10 mg/kg and Compound 1 at […] (n=15). After 2 weeks of treatment, fasted (6 hour) blood glucose and plasma insulin levels (determined in tail vein blood samples) were analysed. Food intake and weight were monitored throughout the study.
Blood samples were collected from the tail vein in Potassium-EDTA vials and plasma was separated by centrifugation and stored at −20° C. until assayed. Plasma insulin was determined with mouse insulin ELISA (Ultra Sensitive Mouse insulin ELISA Kit). Glucose concentrations were analysed in tail vein blood using a OneTouch® Ultra®2 Blood Glucose Meter (LifeScan, Inc).
Results shown in the figures are expressed as means±standard error of the mean (S.E.M.) for the number of animals per group. Statistical significance between the control group and the three treatment groups were analysed by Student's t-test, with P<0.05 considered statistically significant.

[2] = tested on: AMPK in human skeletal myotubes; test: AMPK activation assay in human skeletal myotubes; assay type: cell-based; details: cells preferentially expressing β2 subunit
Description: All cell lines were lysed in 0.1 M Tris-HCl, pH 6.8, 2% SDS, 10 mM sodium fluoride (SIGMA #S7920), 10 mM β-glycerophosphate (SIGMA #G6376), and 1 mM sodium vanadate (SIGMA #72060) and supernatant collected after 1 minute at 14,000 rpm. Islets (human and mouse) were lysed in 0.1 M Tris-HCl, pH 6.8, 2% SDS, protease inhibitor (Roche #04 693 124 001) and phosphatase inhibitor (Roche #04 906 837 001). Right calf muscle, heart, iWAT, and interscapular BAT was crushed in a pestle using liquid nitrogen and homogenised in ice cold RIPA buffer (150 mM sodium chloride (SIGMA #S7653), 1.0% NP40 (USB), 0.5% sodium deoxycholate (SIGMA #D6750), 0.1% SDS, 50 mM Tris pH 8.0, 20 mM sodium pyrophosphate (SIGMA #71515), 10 mM sodium fluoride, 10 mM β-glycerolphosphate, 1 mM sodium vanadate and protease inhibitor cocktail (Roche #04693124001), 1 tablet/10 ml lysis buffer). The supernatant was collected after 2 min at 14,000 rpm. This procedure was repeated until all fat was eliminated and the supernatant was clear, at 4° C. Samples were analysed on 4-15% polyacrylamide gels. Values were normalised toward AMPKα, β-Actin, GAPDH or the respective non-phosphorylated counterpart.
Table 3 contains origin of cell lines, growth conditions and settings for activation of AMPK via the test material. […]

[3] = test material-HFD 0.8 or 2 mg/g, 6 w

## O=C(Nc1nc(=O)n(Cc2ccc(Cl)cc2)s1)c1ccc(Cl)cc1 [test material, 4-chloro-N-[2-[(4-chlorophenyl)methyl]-3-oxo-1,2,4-thiadiazol-5-yl]benzamide]
Wistar rats
  heart/brain weight: did not show increased heart/brain weight
CBA mice on HFD; 0.8 mg/g
  heart rate: normalized
CBA mice on HFD; 2 mg/g
  heart rate: reduced heart rate
CBA mice on HFD; test material-HFD 0.8 mg/g and 2 mg/g, 6 w
  increase in stroke volume compared with both RD and HFD: ~20%
CBA mice on HFD; [3]
  end-diastolic volume: normalized end-diastolic volume
  end-systolic volume: dose-dependently improved, but did not fully restore
[1]
  HOMA-IR: statistically significant (***) reduction
[1]; 6 hour fast
  fasted plasma insulin: statistically significant (***) reduction
[2]
  pAMPK: increased pAMPK
